{"source": "patent US20150164762A1", "about": "“USE OF ETHANOLAMINE PHOSPHATE” (priority 2012, published 2015)", "key": {"BEAS-2B [1]": {"tested_on": "BEAS-2B", "test": "Transepithelial electrical resistance (TER), BEAS-2B", "format": "cell-based, human", "settings": "EP 1 mM, 1% FBS", "description": "(§1) Cells of the established normal human airway epithelial cell line BEAS-2B were seeded to 1×10^5 cells/cm^2 on a cell culture insert (353104, BD Falcon) (FIG. 14). 10% FBS RPMI-1640 was used as the medium. The amount of medium was 200 μl on the insert side and 750 μl on the well side. Beginning the next day, substitution/medium replacement was performed once a day with 1% FBS RPMI-1640 prepared with the following 4 reagent conditions, and transepithelial electrical resistance (TER) was measured with MilliCell (Millipore). • Condition 1: Control • Condition 2: EP 1 mM • Condition 3: Dexamethasone 1 μM (dexamethasone (Dex): positive control substance known to enhance barrier function) • Condition 4: EP 1 mM and Dex 1 μM"}, "IL-8": {"tested_on": "IL-8", "test": "ELISA of IL-8 secreted from THP-1 cells, with or without LPS", "format": "cell-based, human", "description": "Human monocytic cultured THP-1 cells were cultured logarithmically as follows in 10% FBS RPMI-1640 growth culture. Cells were seeded to 4×10^5/ml on a 24-well plate (500 μl/well), additional growth culture containing EP was added, and finally the EP concentration was adjusted to the target concentration (0.1 mM, 1 mM). 2 hours after EP administration, further growth medium containing lipopolysaccharides (LPS) was added, and adjusted to concentrations of 0.1 μg/ml and 1 μg/ml.\n4 hours and 24 hours after lipopolysaccharide administration, the medium was collected, the cells were precipitated by centrifugation, and the supernatant was used as an ELISA sample. As in the Singh et al. report, the inflammatory cytokine TNF-α and the chemokine IL-8, which attracts inflammatory cells, were used as ELISA measurement indicators."}, "BEAS-2B [2]": {"tested_on": "BEAS-2B", "test": "Permeability test, 4-kilodalton fluorescent dextran through BEAS-2B cell sheet (Papp)", "format": "cell-based, human", "settings": "EP 1 mM, 7 days after seeding", "description": "as §1\n7 days after cell seeding a permeability test was performed as follows.\nA 4-kilodalton fluorescent dextran molecule (Sigma) was added to the cell culture insert to a concentration of 0.1 mg/ml, 20 μl of the medium on the well side was removed after 1 hour, and the amount of permeating fluorescent dextran was estimated from the fluorescent strength at each concentration. The permeation rate Papp of a substance from the insert side to the well side is normally determined by the following formula.\nPapp=(volume of medium on well side/insert area×initial insert concentration)×(altered concentration on well side/elapsed time)"}, "HL-60": {"tested_on": "HL-60", "test": "WST-8 proliferation test, HL-60 floating cells", "format": "cell-based, human", "settings": "0% FBS, 72 hours, even at high concentrations", "description": "THP-1 (human acute monocytic leukemia cells) and HL-60 (human myeloid leukemia cells) were logarithmically growth cultured in 10% FBS RPMI-1640 to 2 to 10×10^5 cells/cm^2 to achieve logarithmic growth before EP administration. The cell culture liquid was then centrifuged and precipitated at 1000 rpm, and 90 μl per well was dispensed onto a 96-well plate to 2×10^4 cells/cm^2 in 0% FBS RPMI-1640. […] For the WST-8 assay of the floating cells, 10 μl per well of WST-8 assay reagent was added directly to the cell suspension during culture, and after 1 hour absorbance at 450 nm and 600 nm was measured with a plate reader and the data were analyzed as in the examples above."}, "BEAS-2B [3]": {"tested_on": "BEAS-2B", "test": "Suppression of the proliferative effect of EP by a MEK 1/2 inhibitor (WST-8)", "format": "cell-based, human", "settings": "250 μM EP, no MEK 1/2 inhibitor, 0.1% FBS, 72 hours"}, "HBEpC cells": {"tested_on": "HBEpC cells", "test": "WST-8 proliferation test, primary normal human airway epithelial cells (HBEpC)", "format": "cell-based", "description": "BEGM (Takara Bio, complete medium) was used as the medium. […] Following medium replacement, 10 μl per well of an EP solution of 10 times the set concentration was added, and after 96 hours a proliferation test (WST-8 assay) was performed."}}, "data": [{"smiles": "NCCOP(=O)(O)O", "note": "[EP, Ethanolamine phosphate]", "values": [{"measurement": "increase in TER", "setting": "BEAS-2B [1]", "result": 49, "unit": "%"}, {"measurement": "secretion of LPS-induced IL-8", "setting": "IL-8; 4 hours and 24 hours of stimulus, EP 0.1 mM, 1 mM", "result": "dose-dependently suppressed"}, {"measurement": "IL-8 secretion, reduced to % of untreated", "setting": "IL-8; cells not treated with LPS, 26 hours, 1 mM EP", "result": "about 43%"}, {"measurement": "permeation rate Papp of fluorescent dextran, lower than control", "setting": "BEAS-2B [2]", "result": 25, "unit": "%"}, {"measurement": "cell proliferation ability", "setting": "HL-60", "result": "absolutely no cell proliferation ability"}, {"measurement": "cell proliferation", "setting": "BEAS-2B [3]", "result": "roughly 3 fold"}, {"measurement": "growth-stimulating effect", "setting": "HBEpC cells; 7 μM, BEBM basal medium, 96 hours", "result": "roughly two-fold"}, {"measurement": "toxicity", "setting": "HBEpC cells; mM level", "result": "no toxicity"}]}]}
